Measured values taken from patent US20150299143A1, “SUBSTITUTED TRIAZOLE AND IMIDAZOLE COMPOUNDS” (HOFFMANN-LA ROCHE INC., priority 2012, published 2015).
Where two headings read alike, the source gives them in different places.

How the values were obtained:
[1] = target: T1, β 5i (chymotrypsin-like activity) (Homo sapiens, UniProt P20618+P28062); assay: Cell-Based Proteasome subunit activity/selectivity assay, β5i, substrate (ANW)2Rh110; settings: Ramos cells; substrate (ANW)2Rh110 (β5i); highest concentration tested 20 μM; read-out: Ic50:ramos:ac-(anw)2-r110
T1 construct: protease activity associated with the proteasome complex in cultured cells; endogenous in cells; host or cells: Ramos cells
From the text: (§1) Cell-Based Proteasome Activity/Selectivity Assay
(§2) The Cell-Based Proteasome subunit activity/selectivity assay was a panel of 5 fluorogenic assays that independently measured the activity of β5c or β 5i (chymotrypsin-like activity), β 2c/2i (trypsin-like), and β 1c or β 1i (caspase-like) protease activity associated with the proteasome complex in cultured cells. Specifically, the following substrates were used for respective subunit activities: β 1i (PAL)2Rh110, β 1c: (LLE)2 Rh110, β 2c/2i: (KQL)2Rh110, β 5c: (WLA)2Rh110, β 5i: (ANW)2Rh110. The following procedure was followed:
(§3) Added 0.5 μl of 100× 4-fold serial diluted test compounds or DMSO to each well. Highest concentration of compound tested was 20 μM, thus compound serial dilution started from […]. Incubated for 30 minutes at 37° C. Then equilibrated at room temperature for 15 minutes. […] Shaked for one minute @ 700 rpm. Incubated for 120 min at room temperature. Then read the plates with an Envision multilabel plate reader (PerkinElmer) with 500 nm excitation/519 nm emission.

[2] = target: T2, β5c (chymotrypsin-like activity) (Homo sapiens, UniProt P20618+P28074); assay: Cell-Based Proteasome subunit activity/selectivity assay, β5c, substrate (WLA)2Rh110
T2 construct: protease activity associated with the proteasome complex in cultured cells; endogenous in cells; host or cells: Ramos cells
From the text: as §1, §2, §3

β 2c/2i (trypsin-like) = assay: Cell-Based Proteasome subunit activity/selectivity assay, β2c/2i, substrate (KQL)2Rh110; settings: Ramos cells; substrate (KQL)2Rh110 (β2c/2i); highest concentration tested 20 μM
From the text: as §1, §2, §3

β 1i (caspase-like) = target: T3, β 1i (caspase-like) (Homo sapiens, UniProt P28065+P40306); assay: Cell-Based Proteasome subunit activity/selectivity assay, β1i, substrate (PAL)2Rh110
T3 construct: protease activity associated with the proteasome complex in cultured cells; endogenous in cells; host or cells: Ramos cells
From the text: as §1, §2, §3

β 1c (caspase-like) = target: T4, β 1c (caspase-like) (Homo sapiens, UniProt P28072+Q99436); assay: Cell-Based Proteasome subunit activity/selectivity assay, β1c, substrate (LLE)2Rh110
T4 construct: protease activity associated with the proteasome complex in cultured cells; endogenous in cells; host or cells: Ramos cells
From the text: as §1, §2, §3

[3] = Ramos cells, substrate (WLA)2Rh110 (β5c), highest concentration tested 20 μM, read-out: Ic50:ramos:rh110-(wla)2
[4] = Ramos cells, substrate (PAL)2Rh110 (β1i), highest concentration tested 20 μM, read-out: Ic50:ramos:rh110-(pal)2
[5] = Ramos cells, substrate (LLE)2Rh110 (β1c), highest concentration tested 20 μM, read-out: Ic50:ramos:rh110-(lle)2

SMILES	IC50 [1]	IC50 [2, 3]	IC50 (β 2c/2i (trypsin-like))	IC50 (β 1i (caspase-like); [4])	IC50 (β 1c (caspase-like); [5])	IC50 [2]	IC50 (β 1i (caspase-like))	IC50 (β 1c (caspase-like))
CCc1ccc(C(C#N)NC(=O)c2cn(CCNC(=O)c3ccc(C(F)(F)F)cc3F)cn2)cc1 (stereo not shown) [Example 94, 1-[2-(2-Fluoro-4-trifluoromethyl-benzoylamino)-ethyl]-1H-imidazole-4-carboxylic acid [cyano-(4-ethyl-phenyl)-methyl]-amide]	1010 nM	≥ 20 µM	≥ 20 µM	≥ 20 µM	≥ 20 µM	–	–	–
CCc1ccc(C(C#N)NC(=O)c2cn(CCNC(=O)c3ccccc3COC)nn2)cc1 (stereo not shown) [Example 33, 1-[2-(2-Methoxymethyl-benzoylamino)-ethyl]-1H-[1,2,3]triazole-4-carboxylic acid [cyano-(4-ethyl-phenyl)-methyl]-amide]	1800 nM	≥ 20 µM	≥ 20 µM	≥ 20 µM	≥ 20 µM	–	–	–
CCc1ccc(C(C#N)NC(=O)c2cn(CCNC(=O)c3cccc(-c4ccccc4)n3)nn2)cc1 (stereo not shown) [Example 15, 6-Phenyl-pyridine-2-carboxylic acid [2-(4-{[cyano-(4-ethyl-phenyl)-methyl]-carbamoyl}-[1,2,3]triazol-1-yl)-ethyl]-amide]	1500 nM	7.76 µM	≥ 20 µM	≥ 20 µM	19.9 µM	–	–	–
CCc1ccc(C(C#N)NC(=O)c2cn(CCNC(=O)c3ccc(Cl)cn3)nn2)cc1 (stereo not shown) [Example 44, 5-Chloro-pyridine-2-carboxylic acid [2-(4-{[cyano-(4-ethyl-phenyl)-methyl]-carbamoyl}-[1,2,3]triazol-1-yl)-ethyl]-amide]	2930 nM	≥ 20 µM	≥ 20 µM	≥ 20 µM	≥ 20 µM	–	–	–
CCc1ccc(C(C#N)NC(=O)c2cn(CCNC(=O)CC3(O)Cc4ccccc4C3)nn2)cc1 (stereo not shown) [Example 22, 1-{2-[2-(2-Hydroxy-indan-2-yl)-acetylamino]-ethyl}-1H-[1,2,3]triazole-4-carboxylic acid [cyano-(4-ethyl-phenyl)-methyl]-amide]	9950 nM	≥ 20 µM	≥ 20 µM	≥ 20 µM	≥ 20 µM	–	–	–
CCc1ccc(C(C#N)NC(=O)c2cn(CCNC(=O)c3ccc(OC(F)(F)F)cc3OC)nn2)cc1 (stereo not shown) [Example 11, 1-[2-(2-Methoxy-4-trifluoromethoxy-benzoylamino)-ethyl]-1H-[1,2,3]triazole-4-carboxylic acid [cyano-(4-ethyl-phenyl)-methyl]-amide]	106 nM	9.98 µM	≥ 20 µM	≥ 20 µM	≥ 20 µM	–	–	–
N#CC(NC(=O)c1cn(CCNC(=O)c2ccc(C(F)(F)F)cc2F)nn1)c1ccc(C2CC2)cc1 (stereo not shown) [Example 76, 1-[2-(2-Fluoro-4-trifluoromethyl-benzoylamino)-ethyl]-1H-[1,2,3]triazole-4-carboxylic acid [cyano-(4-cyclopropyl-phenyl)-methyl]-amide]	50 nM	≥ 20 µM	≥ 20 µM	≥ 20 µM	≥ 20 µM	–	–	–
CCc1ccc(C(C#N)NC(=O)c2cn(CCNC(=O)c3cccc(OC)n3)nn2)cc1 (stereo not shown) [Example 26, 6-Methoxy-pyridine-2-carboxylic acid [2-(4-{[cyano-(4-ethyl-phenyl)-methyl]-carbamoyl}-[1,2,3]triazol-1-yl)-ethyl]-amide]	5380 nM	≥ 20 µM	≥ 20 µM	≥ 20 µM	≥ 20 µM	–	–	–
CCc1ccc(C(C#N)NC(=O)c2nc(CCNC(=O)c3ccc(OC)c(OC)c3OC)n[nH]2)cc1 (stereo not shown) [Example 89, 5-[2-(2,3,4-Trimethoxy-benzoylamino)-ethyl]-2H-[1,2,4]triazole-3-carboxylic acid [cyano-(4-ethyl-phenyl)-methyl]-amide]	54 nM	≥ 20 µM	≥ 20 µM	≥ 20 µM	≥ 20 µM	–	–	–
CCc1ccc(C(C#N)NC(=O)c2cn(CCNC(=O)c3cc(C(F)(F)F)ccc3F)nn2)cc1 (stereo not shown) [Example 37, 1-[2-(2-Fluoro-5-trifluoromethyl-benzoylamino)-ethyl]-1H-[1,2,3]triazole-4-carboxylic acid [cyano-(4-ethyl-phenyl)-methyl]-amide]	71 nM	≥ 20 µM	≥ 20 µM	≥ 20 µM	≥ 20 µM	–	–	–
COc1ccc(C(=O)NCCn2cc(C(=O)N[C@@H](CCc3ccccc3)C(=O)O)nn2)c(OC)c1OC [Example 83, (S)-4-Phenyl-2-({1-[2-(2,3,4-trimethoxy-benzoylamino)-ethyl]-1H-[1,2,3]triazole-4-carbonyl}-amino)-butyric acid]	921 nM	–	≥ 20 µM	–	–	8.36 µM	≥ 20 µM	≥ 20 µM
CCOc1ccc(C(=O)NCCn2cc(C(=O)NC(C#N)c3ccc(CC)cc3)nn2)nc1 (stereo not shown) [Example 28, 5-Ethoxy-pyridine-2-carboxylic acid [2-(4-{[cyano-(4-ethyl-phenyl)-methyl]-carbamoyl}-[1,2,3]triazol-1-yl)-ethyl]-amide]	933 nM	13.3 µM	≥ 20 µM	≥ 20 µM	≥ 20 µM	–	–	–
CCc1ccc(C(C#N)NC(=O)c2cn(CCNC(=O)c3ccc(C(F)(F)F)cc3OC)cn2)cc1 (stereo not shown) [Example 92, 1-[2-(2-Methoxy-4-trifluoromethyl-benzoylamino)-ethyl]-1H-imidazole-4-carboxylic acid [cyano-(4-ethyl-phenyl)-methyl]-amide]	996 nM	≥ 20 µM	≥ 20 µM	≥ 20 µM	18.3 µM	–	–	–
COc1ccc(C(=O)NCCn2cc(C(=O)NCc3ccc(Cl)cc3)nn2)c(OC)c1OC [Example 5, 1-[2-(2,3,4-Trimethoxy-benzoylamino)-ethyl]-1H-[1,2,3]triazole-4-carboxylic acid 4-chloro-benzylamide]	6490 nM	≥ 20 µM	≥ 20 µM	≥ 20 µM	≥ 20 µM	–	–	–

The next lines start with the values.

IC50 [1]	IC50 [2, 3]	IC50 (β 2c/2i (trypsin-like))	IC50 (β 1i (caspase-like); [4])	IC50 (β 1c (caspase-like); [5])	IC50 [2]	IC50 (β 1i (caspase-like))	IC50 (β 1c (caspase-like))	SMILES
2490 nM	≥ 20 µM	≥ 20 µM	≥ 20 µM	≥ 20 µM	–	–	–	CCc1ccc(C(C#N)NC(=O)c2cn(CCNC(=O)c3ccc(OC)c(OC)c3OC)nn2)nc1 (stereo not shown) [Example 63, 1-[2-(2,3,4-Trimethoxy-benzoylamino)-ethyl]-1H-[1,2,3]triazole-4-carboxylic acid [cyano-(5-ethyl-pyridin-2-yl)-methyl]-amide]
327 nM	16.8 µM	≥ 20 µM	≥ 20 µM	≥ 20 µM	–	–	–	COc1ccc(C(=O)NCCn2cc(C(=O)NC(C#N)c3ccc(Cl)cc3)nn2)c(OC)c1OC (stereo not shown) [Example 68, 1-[2-(2,3,4-Trimethoxy-benzoylamino)-ethyl]-1H-[1,2,3]triazole-4-carboxylic acid [(4-chloro-phenyl)-cyano-methyl]-amide]
127 nM	8.31 µM	≥ 20 µM	10.1 µM	9.68 µM	–	–	–	CCCc1ccc(C(C#N)NC(=O)c2cn(CCNC(=O)c3ccc(OC)c(OC)c3OC)nn2)cc1 (stereo not shown) [Example 64, 1-[2-(2,3,4-Trimethoxy-benzoylamino)-ethyl]-1H-[1,2,3]triazole-4-carboxylic acid [cyano-(4-propyl-phenyl)-methyl]-amide]
404 nM	≥ 20 µM	≥ 20 µM	≥ 20 µM	≥ 20 µM	–	–	–	COc1ccc(C(=O)NCCn2cc(C(=O)NC(C#N)c3ccc(C)cc3)nn2)c(OC)c1OC (stereo not shown) [Example 62, 1-[2-(2,3,4-Trimethoxy-benzoylamino)-ethyl]-1H-[1,2,3]triazole-4-carboxylic acid (cyano-p-tolyl-methyl)-amide]
423 nM	≥ 20 µM	≥ 20 µM	≥ 20 µM	≥ 20 µM	–	–	–	COc1ccc(C(C#N)NC(=O)c2cn(CCNC(=O)c3ccc(OC)c(OC)c3OC)nn2)cc1 (stereo not shown) [Example 8, 1-[2-(2,3,4-Trimethoxy-benzoylamino)-ethyl]-1H-[1,2,3]triazole-4-carboxylic acid [cyano-(4-methoxy-phenyl)-methyl]-amide]
795 nM	≥ 20 µM	≥ 20 µM	≥ 20 µM	≥ 20 µM	–	–	–	COc1ccc(C(=O)NCCn2cc(C(=O)NC(C#N)c3ccc4ccsc4c3)nn2)c(OC)c1OC (stereo not shown) [Example 66, 1-[2-(2,3,4-Trimethoxy-benzoylamino)-ethyl]-1H-[1,2,3]triazole-4-carboxylic acid (benzo[b]thiophen-6-yl-cyano-methyl)-amide]
